# Test results: US7192746B2, “α-Isomaltosyltransferase, process for producing the same and use thereof” (Kabushiki Kaisha Hayashibara Seibutsu Kagaku Kenkyujo, priority 2000, dated 2007)
# Assays:
# [1] = test system: Bifidobacterium adolescentis JCM 1275 strain; experiment: Assimilation test; format: cell-based; settings: PYF medium with 0.5% saccharide, 37° C., four days, anaerobic
# [2] = Amino carbonyl reaction with glycine; format: physicochemical; settings: 10% (w/v) with 1% (w/v) glycine, pH 7.0, 100° C.
# Method: (§1) Four milliliter aliquots of the resulting solution were placed in glass test tubes, sealed, and heated at 100° C. for 30 to 90 min. After allowing to stand for cooling at ambient temperature, each of the resulting solutions was measured for coloration degree to examine their amino carbonyl reactivity. The coloration degree was evaluated based on the absorbance in a cell with 1-cm light pass at a wavelength of 480 nm.
# [3] = test system: Clostridium perfringens JCM 3816 strain; format: cell-based; settings: PYF medium with 0.5% saccharide, 37° C., four days, anaerobic
# [4] = test system: Bacteroides vulgatus JCM 5826 strain; experiment: Assimilation test; format: cell-based; settings: PYF medium with 0.5% saccharide, 37° C., four days, anaerobic
# [5] = Saturation concentration of cyclotetrasaccharide in water; format: physicochemical; settings: for Saturation concentration of cyclotetrasaccharide: water
# Source text: The resulting each saturated solution of cyclotetrasaccharide was membrane filtered to remove undissolved cyclotetrasaccharide, and each filtrate was then examined for moisture content by the drying loss method and determined for a saturation concentration of cyclotetrasaccharide at respective temperatures.
# Thermostability = format: physicochemical; settings: 10% (w/v) aqueous solution, 120° C.; for Purity: HPLC
# Method: After the heating, the aqueous solution was cooled under atmospheric conditions and measured for coloration degree and determined for purity on HPLC in Experiment 1. The coloration degree was evaluated based on the absorbance in a cell with a 1-cm light pass at a wavelength of 480 nm.
# Inclusion action = format: physicochemical
# Method: To 100 g of the aqueous solution was added 2 g of methanol, 3 g of ethanol, or 4.6 g of acetic acid to be included by the cyclotetrasaccharide. Thereafter, each of the resulting solutions was filtered to remove non-inclusion products, and the filtrate was lyophilized. As a control, similar inclusion products were prepared by using “ISOELITE™ P”, a branched cyclodextrin commercialized by Maruha K.K., Tokyo, Japan, known to have inclusion ability.
# To measure the amount of the inclusion products in the resulting lyophilized powders, one gram of each powder was dissolved in five milliliters water and extracted after admixing with five milliliters of diethylether. The extraction was repeated, and the resulting extracts were pooled and quantified on gas chromatography.
# [6] = Amino carbonyl reaction with polypeptone; format: physicochemical; settings: 10% (w/v) with 5% (w/v) polypeptone, 120° C., minus control
# Method: as §1, with “120°” for “100°”, “solution” for “solutions”, “reactivity. In parallel, as a control, a solution with only polypeptone was provided and similarly treated as above.” for “reactivity.”, “level of the absorbance, measured” for “absorbance”, “nm, minus that of the control.” for “nm.”
# [7] = test system: Escherichia coli IFO 3301 strain; experiment: Assimilation test; format: cell-based; settings: PYF medium with 0.5% saccharide, 37° C., four days, anaerobic
# [8] = test system: Lactobacillus acidophilus JCM 1132 strain; experiment: Assimilation test; format: cell-based; settings: PYF medium with 0.5% saccharide, 37° C., four days, anaerobic
# pH stability = format: physicochemical; settings: 4% (w/v), 100° C., 24 hours; for Purity: HPLC
# Method: Eight milliliters of each solution was placed in a glass test tube, followed by sealing the test tube and heating the solution at 100° C. for 24 hours. After cooling under atmospheric conditions, each solution was measured for coloration degree and determined for purity on HPLC. The coloration degree was evaluated based on the absorbance in a cell with a 1-cm light pass at a wavelength of 480 nm.
# salivary amylase = target: T1, salivary amylase (Homo sapiens, UniProt P0DUB6); experiment: Digestion test in vitro
# T1 sequence (P0DUB6 16-511): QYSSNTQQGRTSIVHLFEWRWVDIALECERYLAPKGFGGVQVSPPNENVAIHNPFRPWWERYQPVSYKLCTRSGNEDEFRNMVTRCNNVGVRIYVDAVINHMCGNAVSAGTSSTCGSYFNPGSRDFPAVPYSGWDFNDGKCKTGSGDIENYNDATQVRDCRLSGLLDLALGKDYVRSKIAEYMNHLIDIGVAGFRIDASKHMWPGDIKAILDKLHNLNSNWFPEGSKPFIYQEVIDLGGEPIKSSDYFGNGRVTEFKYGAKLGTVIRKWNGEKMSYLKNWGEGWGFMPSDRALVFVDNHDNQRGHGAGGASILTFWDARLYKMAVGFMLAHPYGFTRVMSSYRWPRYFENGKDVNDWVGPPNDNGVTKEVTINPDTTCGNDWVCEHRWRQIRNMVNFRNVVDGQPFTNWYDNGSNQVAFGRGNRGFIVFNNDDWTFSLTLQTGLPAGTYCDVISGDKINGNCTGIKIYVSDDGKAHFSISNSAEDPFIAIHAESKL
smiles,measurement,setting,value
"OCC1OC2OCC3O[C@H](O[C@H]4C(O)C(CO)OC(OCC5O[C@H](O[C@@H](C1O)C2O)C(O)C(O)[C@@H]5O)C4O)C(O)C(O)[C@@H]3O (stereo partly drawn) [Cyclotetrasaccharide, cyclo{→6)-α-D-glucopyranosyl-(1→3)-α-D-glucopyranosyl-(1→6)-α-D-glucopyranosyl-(1→3)-α-D-glucopyranosyl-(1→}]",Assimilability,[1],− (negative (−) when the post culture had a pH of 6.0 or higher)
same,Coloration degree (A480 nm),[2]; heating time 0 min,0.00
same,Coloration degree (A480 nm),[2]; heating time 30 min,0.00
same,Coloration degree (A480 nm),[2]; heating time 60 min,0.00
same,Coloration degree (A480 nm),[2]; heating time 90 min,0.00
same,Assimilability,[3],− (negative (−) when the post culture had a pH of 6.0 or higher)
same,Assimilability,[4],− (negative (−) when the post culture had a pH of 6.0 or higher)
same,Weight of cyclotetrasaccharide dissolved in 100 g water,[5]; 10° C.,43.5 g
same,Weight of cyclotetrasaccharide dissolved in 100 g water,[5]; 30° C.,51.9 g
same,Weight of cyclotetrasaccharide dissolved in 100 g water,[5]; 50° C.,74.2 g
same,Weight of cyclotetrasaccharide dissolved in 100 g water,[5]; 70° C.,112.7 g
same,Weight of cyclotetrasaccharide dissolved in 100 g water,[5]; 90° C.,239.0 g
same,Saturation concentration of cyclotetrasaccharide,[5]; 10° C.,30.3%
same,Saturation concentration of cyclotetrasaccharide,[5]; 30° C.,34.2%
same,Saturation concentration of cyclotetrasaccharide,[5]; 50° C.,42.6%
same,Saturation concentration of cyclotetrasaccharide,[5]; 70° C.,53.0%
same,Saturation concentration of cyclotetrasaccharide,[5]; 90° C.,70.5%
same,Coloration degree (A480 nm),Thermostability; heating time 0 min,0.00
same,Purity,Thermostability; heating time 0 min,100%
same,Coloration degree (A480 nm),Thermostability; heating time 30 min,0.00
same,Purity,Thermostability; heating time 30 min,100%
same,Coloration degree (A480 nm),Thermostability; heating time 60 min,0.00
same,Purity,Thermostability; heating time 60 min,100%
same,Coloration degree (A480 nm),Thermostability; heating time 90 min,0.00
same,Purity,Thermostability; heating time 90 min,100%
same,"Inclusion ability relative to the branched cyclodextrin, by weight",Inclusion action; higher than ISOELITE P,about 2 folds
same,Inclusion amount,Inclusion action; inclusion product Acetic acid,67.74 mg/g lyophilized powder
same,Inclusion amount,Inclusion action; inclusion product Ethanol,17.26 mg/g lyophilized powder
same,Inclusion amount,Inclusion action; inclusion product Methanol,6.71 mg/g lyophilized powder
same,Coloration degree (A480 nm),[6]; heating time 0 min,0.00
same,Coloration degree (A480 nm),[6]; heating time 30 min,0.00
same,Coloration degree (A480 nm),[6]; heating time 60 min,0.00
same,Coloration degree (A480 nm),[6]; heating time 90 min,0.00
same,Assimilability,[7],− (negative (−) when the post culture had a pH of 6.0 or higher)
same,Assimilability,[8],− (negative (−) when the post culture had a pH of 6.0 or higher)
same,Coloration degree (A480 nm),pH stability; pH 2.0 (Acetate buffer),0.00
same,Purity,pH stability; pH 2.0 (Acetate buffer),93%
same,Coloration degree (A480 nm),pH stability; pH 3.0 (Acetate buffer),0.00
same,Purity,pH stability; pH 3.0 (Acetate buffer),100%
same,Coloration degree (A480 nm),pH stability; pH 4.0 (Acetate buffer),0.00
same,Purity,pH stability; pH 4.0 (Acetate buffer),100%
same,Coloration degree (A480 nm),pH stability; pH 5.0 (Acetate buffer),0.00
same,Purity,pH stability; pH 5.0 (Acetate buffer),100%
same,Coloration degree (A480 nm),pH stability; pH 6.0 (Tris-HCl buffer),0.00
same,Purity,pH stability; pH 6.0 (Tris-HCl buffer),100%
same,Coloration degree (A480 nm),pH stability; pH 7.0 (Tris-HCl buffer),0.00
same,Purity,pH stability; pH 7.0 (Tris-HCl buffer),100%
same,Coloration degree (A480 nm),pH stability; pH 8.0 (Tris-HCl buffer),0.00
same,Purity,pH stability; pH 8.0 (Tris-HCl buffer),100%
same,Coloration degree (A480 nm),pH stability; pH 9.0 (Ammonium buffer),0.00
same,Purity,pH stability; pH 9.0 (Ammonium buffer),100%
same,Coloration degree (A480 nm),pH stability; pH 10.0 (Ammonium buffer),0.00
same,Purity,pH stability; pH 10.0 (Ammonium buffer),100%
"OC[C@@H](O)[C@@H](O[C@H]1O[C@H](CO)[C@@H](O)[C@H](O)[C@H]1O)[C@H](O)[C@@H](O)CO [Maltitol, maltitol]",Decomposition percentage by digestive enzyme,salivary amylase,0.0%
